Data set [1] concerns the target T1, Proteinase K (ProtK) (Parengyodontium album, UniProt P06873).
T1 construct: purchased Bioshop
Briefly: in vitro. Format: in vitro ADME. As to the method: (§1) Stocks of 20 μM peptide in 200 μL total volume (10 mM Tris-base, 10 mM NaCl, pH 7.4) were supplemented with 5 μM CaCl2) and 30 uL removed for the untreated T0 sample. Proteinase K (ProtK, Bioshop) was then added to a final concentration of 100 μg/mL. Samples were incubated at 37° C. and 30 μL removed after each time point and protease activity blocked by the addition of 10 mM PMSF (200 mM stock dissolved in isopropanol). Protease inactivated samples were frozen at −20° C. until further use. Digestions were repeated three times. Frozen samples were supplemented with 8 μL sample loading buffer (4× NuPAGE, ThermoFisher Scientific), boiled ([…]) for 10 minutes, and centrifuged (12 000 rpm, 10 min) prior to loading the gel (12% NuPAGE Bis-Tris (ThermoFisher Scientific) with MES running buffer). Gels were run at 200 V for […] and stained using Coomassie Brilliant Blue dye. Densitometry of bands was determined using ImageJ software (40) with back ground subtraction. All samples were normalized to their respective untreated sample (T0).

The nature of data set [2]: in vitro. The format is in vitro ADME. Conditions: isolated enzyme proteinase k, pH 7.4. As to the method:
as §1

Data set [3] concerns the target T2, GLP2R (Homo sapiens, UniProt O95838).
T2 construct: expressed in transfected cells; host or cells: HEK293
T2 sequence (O95838 1-553): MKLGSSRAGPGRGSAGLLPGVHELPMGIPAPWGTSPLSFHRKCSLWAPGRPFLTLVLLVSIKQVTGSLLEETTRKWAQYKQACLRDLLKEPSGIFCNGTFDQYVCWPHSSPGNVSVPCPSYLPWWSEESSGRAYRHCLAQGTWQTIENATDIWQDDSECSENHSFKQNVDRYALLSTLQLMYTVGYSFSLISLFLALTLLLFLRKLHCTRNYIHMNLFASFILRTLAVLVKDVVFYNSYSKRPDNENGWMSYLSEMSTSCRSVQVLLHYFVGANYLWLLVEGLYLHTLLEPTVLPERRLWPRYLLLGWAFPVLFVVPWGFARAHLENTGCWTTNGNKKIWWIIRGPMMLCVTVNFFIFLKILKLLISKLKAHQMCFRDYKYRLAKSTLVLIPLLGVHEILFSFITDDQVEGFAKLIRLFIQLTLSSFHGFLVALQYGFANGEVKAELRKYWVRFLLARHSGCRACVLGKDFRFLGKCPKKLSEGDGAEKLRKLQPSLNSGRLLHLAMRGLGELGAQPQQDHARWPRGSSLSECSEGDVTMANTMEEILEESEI
Briefly: CRE-luciferase reporter assay in HEK293 cells stably expressing GLP2R. The format is cell-based. How it is done:
This activates protein kinase A (PKA) to phosphorylate and activate cAMP response element-binding protein (CREB). […] All of the (L)-GLP-2 is degraded in about 1 hr, while more than 90% of the (D)-analog is still detectable at 6 hours.
FIG. 14 is a series of charts and experiments showing the activity and protease degradation of (L)- and (D)-GLP2 polypeptides. (A) HEK293 cells stably expressing GLP2R and CRE-luciferase were stimulated with different concentrations of (L)- and (D)-GLP2 peptides. Luciferase activity was measured. The experiments were performed in triplicate. (B) Sample gel images of (L) and (D)-GLP-2 peptides treated with Proteinase K (ProtK) over 5 hours. Gels were stained with Coomassie Brilliant Blue dye and band densitometry calculated using ImageJ (40) with background subtraction. (C) Quantification of remaining peptide post ProtK treatment in 60 min intervals. Intensities of peptide bands were normalized to the intensity of the untreated peptide (T0) and converted to a percentage relative to T0. […] Error bars are reporting standard error. Data represent the average of 3 independent experiments.

Data set [4] deals with T3, RLN receptor (RXFP1) (Homo sapiens, UniProt Q9HBX9).
T3 construct: expressed in transfected cells; host or cells: HEK293
T3 sequence (Q9HBX9 1-757): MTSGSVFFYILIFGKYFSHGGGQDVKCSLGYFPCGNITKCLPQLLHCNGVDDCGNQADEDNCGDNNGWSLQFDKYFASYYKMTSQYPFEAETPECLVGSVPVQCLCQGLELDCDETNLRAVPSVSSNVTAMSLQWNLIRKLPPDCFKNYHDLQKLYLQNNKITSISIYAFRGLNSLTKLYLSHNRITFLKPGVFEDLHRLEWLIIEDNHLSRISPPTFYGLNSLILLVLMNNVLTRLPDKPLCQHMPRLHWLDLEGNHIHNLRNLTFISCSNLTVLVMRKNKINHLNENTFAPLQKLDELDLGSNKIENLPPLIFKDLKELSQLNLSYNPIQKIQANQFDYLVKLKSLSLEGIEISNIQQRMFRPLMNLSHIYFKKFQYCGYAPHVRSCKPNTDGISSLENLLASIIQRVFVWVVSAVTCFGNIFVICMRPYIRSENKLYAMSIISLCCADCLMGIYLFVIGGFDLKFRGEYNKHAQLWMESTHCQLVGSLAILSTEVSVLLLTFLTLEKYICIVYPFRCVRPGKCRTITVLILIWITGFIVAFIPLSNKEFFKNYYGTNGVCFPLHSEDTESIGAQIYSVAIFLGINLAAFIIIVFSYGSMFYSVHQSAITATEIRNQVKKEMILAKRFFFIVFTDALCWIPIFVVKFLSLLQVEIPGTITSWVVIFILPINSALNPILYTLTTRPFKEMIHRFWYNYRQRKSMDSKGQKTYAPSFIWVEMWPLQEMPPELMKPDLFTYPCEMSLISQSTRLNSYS
The data set is described as follows: CRE-luciferase reporter assay in HEK293 cells stably expressing RXFP1. The format is cell-based. As to the method: This activates protein kinase A (PKA) to phosphorylate and activate cAMP response element-binding protein (CREB). […] All of the (L)-RLN was degraded in about 1 hr, while about 90% of the (D)-analog was still detectable at 6 hours.
FIG. 15 is a series of charts and experiments showing the activity and protease degradation of (D)-RLN_1 (non-mutated) and (D)-RLN_2 (mutated) polypeptides. (A) HEK293 cells stably expressing RXFP1 and CRE-luciferase were stimulated with different concentrations of (D)-RLN_1 and (D)-RLN_2 peptides. Luciferase activity was measured. The experiments were performed in triplicate. (B) Sample gel images of (L) and (D)-RLN peptides treated with Proteinase K (ProtK) over 5 hours. Gels were stained with Coomassie Brilliant Blue dye and band densitometry calculated using ImageJ (40) with background subtraction. (C) Quantification of remaining peptide post ProtK treatment in 60 min intervals. Intensities of peptide bands were normalized to the intensity of the untreated peptide (T0) and converted to a percentage relative to T0. […] Error bars are reporting standard error. Data represent the average of 3 independent experiments.

Square brackets hold non-standard residues; d marks the D form. Peptide text beside a SMILES is read from it.

T1 sequence (P06873 106-384): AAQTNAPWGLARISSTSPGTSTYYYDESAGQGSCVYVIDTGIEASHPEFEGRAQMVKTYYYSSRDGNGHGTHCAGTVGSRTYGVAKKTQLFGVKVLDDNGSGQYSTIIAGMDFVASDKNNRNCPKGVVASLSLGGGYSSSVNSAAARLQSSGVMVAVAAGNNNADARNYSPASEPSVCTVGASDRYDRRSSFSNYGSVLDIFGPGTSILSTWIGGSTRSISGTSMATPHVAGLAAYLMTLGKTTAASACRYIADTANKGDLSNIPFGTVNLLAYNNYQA

With `CC[C@@H](C)[C@@H](NC(=O)[C@@H](C)NC(=O)[C@@H](C)NC(=O)[C@H](NC(=O)[C@@H](C)NC(=O)[C@@H](Cc1ccccc1)NC(=O)[C@@H](Cc1c[nH]c2ccccc12)NC(=O)[C@@H](Cc1ccccc1)NC(=O)CNC(=O)[C@H](NC(=O)[C@@H](CCCNC(=N)N)NC(=O)[C@@H](CC(=O)O)NC(=O)[C@H](NC(=O)[C@@H](CCCCN)NC(=O)[C@H](NC(=O)[C@H](NC(=O)[C@H](N)CC(=O)O)[C@H](C)O)[C@H](C)CC)[C@H](C)O)[C@H](C)CC)C(C)C)C(=O)N[C@H](CC(C)C)C(=O)N[C@@H](C(=O)N[C@H](CC(C)C)C(=O)N[C@H](CC(C)C)C(=O)N[C@H](CCCCN)C(=O)N[C@H](CCSC)C(=O)N[C@H](CCSC)C(=O)N[C@H](CCC(=O)O)C(=O)N[C@H](CCC(=O)O)C(=O)N[C@H](Cc1ccccc1)C(=O)N[C@@H](C(=O)NCC(=O)N[C@H](CC(=O)O)C(=O)N[C@H](C)C(=O)N[C@H](Cc1c[nH]cn1)C(=O)O)C(C)C)C(C)C` [(D)-GLP2] (H-[dD][dT][dI][dK][dT][dD][dR][dI]G[dF][dW][dF][dA][dV][dA][dA][dI][dL][dV][dL][dL][dK][dM][dM][dE][dE][dF][dV]G[dD][dA][dH]-OH; N-terminus and C-terminus assumed), the “degradation by ProtK (in words)” value in data set [1] is listed as “persists after 5 hours”. In data set [2], this compound returned a remaining at 6 h, 20 µM above 90%. Moreover, the “activation of GLP2R, potency and efficacy (in words)” value in data set [3] was “potency and efficacy comparable to (L)-GLP-2”.

On to `CC[C@@H](C)[C@@H](NC(=O)[C@@H](CC(C)C)NC(=O)[C@@H](CC(C)C)NC(=O)[C@@H](CCC(=O)O)NC(=O)[C@@H](CCCCN)NC(=O)[C@@H](CO)NC(=O)[C@H](NC(=O)[C@@H](Cc1c[nH]c2ccccc12)NC(=O)[C@H](N)CO)[C@H](C)O)C(=O)N[C@H](CCC(=O)O)C(=O)N[C@@H](C(=O)N[C@@H](C(=O)N[C@H](CC(N)=O)C(=O)N[C@H](CC(=O)O)C(=O)N[C@H](CC(C)C)C(=O)N[C@H](CCC(N)=O)C(=O)N[C@H](CCCCN)C(=O)N[C@H](CCCNC(=N)N)C(=O)NCC(=O)N[C@H](CS)C(=O)N[C@H](CC(C)C)C(=O)N[C@H](CCCCN)C(=O)N[C@@H](C(=O)N[C@@H](C(=O)N[C@H](CCC(=O)O)C(=O)N[C@H](CCC(=O)O)C(=O)N[C@H](CCSC)C(=O)N[C@H](Cc1c[nH]c2ccccc12)C(=O)N[C@H](CO)C(=O)O)C(C)C)[C@H](C)CC)[C@H](C)CC)[C@H](C)CC` [(D)-RLN] (H-[dS][dW][dT][dS][dK][dE][dL][dL][dI][dE][dI][dI][dN][dD][dL][dQ][dK][dR]G[dC][dL][dK][dI][dV][dE][dE][dM][dW][dS]-OH; N-terminus and C-terminus assumed), for which the “activation of RLN receptor, potency and efficacy (in words)” value in data set [4] was “potency and efficacy comparable to (L)-RLN”. For the same compound, the “degradation by ProtK (in words)” value in data set [1] is on record as “persists after 5 hours”. The remaining at 6 h, 20 µM in data set [1] (isolated enzyme proteinase k, pH 7.4, after 6 hours exposure to ProtK, relative to T0, read-out: peptide still detectable) was around 90%.
